pIC50: −log10 of the molar value. Where two headings read alike, the source gives them in different places.
Legend:
[1] = molecular target: BTK enzyme (recombinant full-length BTK, hBTK) (Homo sapiens (Human), UniProt Q06187); test: Btk enzyme activity assay, LANCE TR-FRET; type: biochemical; conditions: 50 pM hBTK, 2 μM biotin-A5-peptide, 25 μM ATP; 60 minute compound & enzyme incubation; read-out: BTK binding IC50
Method: Btk Enzyme Activity Assay Methods
BTK enzymatic activity was determined with the LANCE (Lanthanide Chelate Excite) TR-FRET (Time-resolved fluorescence resonance energy transfer) assay. […] After 60 minutes incubation with detection reagents, reaction plates were read on a PerkinElmer EnVision plate reader using standard TR-FRET protocol.

HeLa cells = test: [3H] Adenosine uptake assay; type: cell-based; conditions: accumulation of tritiated adenosine into HeLa cells, compound concentration range 10 μM to 0.032 nM, read-out: ADU inhibition IC50 (adenosine uptake inhibition potency)
In short: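 Accumulation of tritiated adenosine in adherent HeLa cells, detected by scintillant-plate coincidence counting, gives IC50 via 4-parameter robust fit. Compound (constant 0.25% DMSO) applied 30 min ahead, then 60 min radiolabel exposure (added from 500 nM solution), ambient conditions, HBSS with 5% FBS.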

Sequence of BTK enzyme (recombinant full-length BTK, hBTK) (Q06187 whole entry): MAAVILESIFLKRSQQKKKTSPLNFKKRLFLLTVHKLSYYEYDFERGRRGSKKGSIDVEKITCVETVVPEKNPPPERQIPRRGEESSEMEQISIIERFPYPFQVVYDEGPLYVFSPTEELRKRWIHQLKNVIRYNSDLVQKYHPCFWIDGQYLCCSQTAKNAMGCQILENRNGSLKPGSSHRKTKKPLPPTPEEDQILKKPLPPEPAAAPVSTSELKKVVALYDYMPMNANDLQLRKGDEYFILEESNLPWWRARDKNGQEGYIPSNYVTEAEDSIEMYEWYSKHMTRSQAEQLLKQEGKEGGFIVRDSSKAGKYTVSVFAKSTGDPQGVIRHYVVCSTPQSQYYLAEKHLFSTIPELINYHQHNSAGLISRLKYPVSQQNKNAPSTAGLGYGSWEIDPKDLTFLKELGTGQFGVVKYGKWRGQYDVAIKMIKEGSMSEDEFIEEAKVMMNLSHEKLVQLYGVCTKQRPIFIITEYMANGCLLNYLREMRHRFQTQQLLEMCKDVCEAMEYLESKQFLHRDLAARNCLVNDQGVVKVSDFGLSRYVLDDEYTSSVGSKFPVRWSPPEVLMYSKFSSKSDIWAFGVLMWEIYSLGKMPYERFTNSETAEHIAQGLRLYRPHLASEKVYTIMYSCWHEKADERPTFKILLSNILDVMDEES

pIC50 [1] | pIC50 (HeLa cells; Homo sapiens, HeLa) | pIC50 (HeLa cells) | SMILES
9.41 | 5.19 |  | Nc1nccn2c(C34CC(C(=O)O)(C3)C4)nc(-c3ccc(C(=O)Nc4cc(C(F)(F)F)ccn4)cc3)c12 [Example 34, 3-[8-amino-1-(4-{[4-(trifluoromethyl)pyridin-2-yl]carbamoyl}phenyl)imidazo[1,5-a]pyrazin-3-yl]bicyclo[1.1.1] pentane-1-carboxylic acid]
9.41 | 5.31 |  | CCOc1cc(C(=O)Nc2cc(C(F)(F)F)ccn2)ccc1-c1nc(C23CCCC(C(=O)O)(CC2)CC3)n2ccnc(N)c12 [Example 67, 5-[8-amino-1-(2-ethoxy-4-{[4-(trifluoromethyl)pyridin-2-yl]carbamoyl}phenyl)imidazo[1,5-a]pyrazin-3-yl]bicyclo[3.2.2] nonane-1-carboxylic acid]
8.77 | 5.29 |  | CC(C)(C(=O)O)C1CCC(c2nc(-c3ccc(C(=O)Nc4cc(C(F)(F)F)ccn4)cc3)c3c(N)nccn23)C1 (centres unmarked) [Example 95, 2-{3-[8-amino-1-(4-{[4-(trifluoromethyl)pyridin-2-yl]carbamoyl}phenyl)imidazo[1,5-a]pyrazin-3-yl]cyclopentyl}-2-methylpropanoic acid]
8.70 | 5.00 |  | CCOc1cc(C(=O)Nc2cc(C(F)(F)F)ccn2)ccc1-c1nc(C23CCC(C(=O)O)(CC2)CC3)n2c(F)cnc(N)c12 [Example 173, 4-[8-amino-1-(2-ethoxy-4-{[4-(trifluoromethyl)pyridin-2-yl]carbamoyl}phenyl)-5-fluoroimidazo[1,5-a]pyrazin-3-yl]bicyclo[2.2.2] octane-1-carboxylic acid]
9.06 | 5.00 |  | CCOc1cc(C(=O)Nc2cc(C(F)(F)F)n(C)n2)ccc1-c1nc([C@H]2CC[C@@](C(=O)O)(C(C)C)C2)n2ccnc(N)c12 [Example 53, (1S,3S)-3-[8-amino-1-(2-ethoxy-4-{[1-methyl-5-(trifluoromethyl)-1H-pyrazol-3-yl]carbamoyl}phenyl)imidazo[1,5-a]pyrazin-3-yl]-1-(1-methylethyl) cyclopentane-carboxylic acid]
9.00 | 5.28 |  | CC1(C(=O)O)CCC(C)(c2nc(-c3ccc(C(=O)Nc4cc(C(F)(F)F)ccn4)cc3Cl)c3c(N)nccn23)CC1 (centres unmarked) [Example 133, 4-[8-amino-1-(2-chloro-4-{[4-(trifluoromethyl)pyridin-2-yl]carbamoyl}phenyl)imidazo[1,5-a]pyrazin-3-yl]-1,4-dimethylcyclohexane-carboxylic acid]
8.41 | 5.00 |  | CCOc1cc(C(=O)Nc2cc(C(F)(F)F)ccn2)ccc1-c1nc(C23CCC(C(=O)O)(CC2O)C(O)C3)n2ccnc(N)c12 (centres unmarked) [Example 174, 4-(8-amino-1-(2-ethoxy-4-((4-(trifluoromethyl)pyridin-2-yl)carbamoyl)phenyl)imidazo[1,5-a]pyrazin-3-yl)-2,5-dihydroxybicyclo[2.2.2]octane-1-carboxylic acid]
8.72 | 5.00 |  | Nc1nccn2c([C@H]3CC[C@@H](C(=O)N4CCC[C@H]4C(=O)O)C3)nc(-c3ccc(C(=O)Nc4cc(C(F)(F)F)ccn4)cc3)c12 [Example 17, 1-({(1R,3S)-3-[8-amino-1-(4-{[4-(trifluoromethyl)pyridin-2-yl]carbamoyl}phenyl)imidazo[1,5-a]pyrazin-3-yl]cyclopentyl}carbonyl)-L-proline]
8.59 | 5.60 |  | CC1(C(=O)O)CCCC(c2nc(-c3ccc(C(=O)Nc4cc(C5CC5)ccn4)cc3)c3c(N)nccn23)C1 (centres unmarked) [Example 153, 3-(8-amino-1-{4-[(4-cyclopropylpyridin-2-yl)carbamoyl]phenyl}imidazo[1,5-a]pyrazin-3-yl)-1-methylcyclohexane-carboxylic acid]
9.04 | 5.00 |  | Nc1nccn2c(N3CC[C@H](C(=O)O)C3)nc(-c3ccc(C(=O)Nc4cc(C(F)(F)F)ccn4)cc3)c12 [Example 39, (3S)-1-[8-amino-1-(4-{[4-(trifluoromethyl)pyridin-2-yl]carbamoyl}phenyl)imidazo[1,5-a]pyrazin-3-yl]pyrrolidine-3-carboxylic acid]
8.77 | 5.39 |  | C[C@H]1CO[C@@H](c2nc(-c3ccc(C(=O)Nc4cc(C(F)(F)F)ccn4)cc3F)c3c(N)nccn23)CN1[C@H]1CC[C@@](C)(C(=O)O)CC1 [Example 194, cis-4-{(2R,5S)-2-[8-amino-1-(2-fluoro-4-{[4-(trifluoromethyl)pyridin-2-yl]carbamoyl}phenyl)imidazo [1,5-a]pyrazin-3-yl]-5-methylmorpholin-4-yl}-1-methylcyclohexanecarboxylic acid]
8.06 | 5.44 |  | CCOc1cc(C(=O)Nc2cc(C(F)(F)F)ccn2)ccc1-c1nc([C@]23CC[C@](C(=O)O)(CC2O)C(O)C3)n2ccnc(N)c12 (stereo partly drawn) [Example 73, (1S,4R)-4-[8-amino-1-(2-ethoxy-4-{[4-(trifluoromethyl)pyridin-2-yl]carbamoyl}phenyl)imidazo[1,5-a]pyrazin-3-yl]-2,5-dihydroxybicyclo [2.2.2]octane-1-carboxylic acid]
8.38 | 5.00 |  | CCOc1cc(C(=O)Nc2cc(C(F)(F)F)ccn2)ccc1-c1nc([C@@]2(C)CC[C@@](C)(C(=O)O)C2)n2ccnc(N)c12 [Example 86, (1R,3S)-3-[8-amino-1-(2-ethoxy-4-{[4-(trifluoromethyl)pyridin-2-yl]carbamoyl}phenyl)imidazo[1,5-a]pyrazin-3-yl]-1,3-dimethylcyclopentane carboxylic acid]
8.89 | 5.00 |  | COc1cc(C(=O)Nc2cc(C(F)(F)F)ccn2)cc(F)c1-c1nc(C2(C)CCC(C)(C(=O)O)CC2)n2ccnc(N)c12 (centres unmarked) [Example 127, 4-[8-amino-1-(2-fluoro-6-methoxy-4-{[4-(trifluoromethyl)pyridin-2-yl]carbamoyl}phenyl)imidazo[1,5-a]pyrazin-3-yl]-1,4-dimethylcyclohexane-carboxylic acid]
8.68 | 5.32 |  | Nc1nccn2c([C@@H]3CC[C@H](C(=O)NC4(C(=O)O)CC4)C3)nc(-c3ccc(C(=O)Nc4cc(C(F)(F)F)ccn4)cc3)c12 [Example 16, 1-[({(1S,3R)-3-[8-amino-1-(4-{[4-(trifluoromethyl)pyridin-2-yl]carbamoyl}phenyl)imidazo[1,5-a]pyrazin-3-yl]cyclopentyl}carbonyl)amino] cyclopropane-carboxylic acid]
8.89 | 5.18 |  | Nc1nccn2c([C@@H]3CCCN(C(=O)C4CC4C(=O)O)C3)nc(-c3ccc(C(=O)Nc4cc(C(F)(F)F)ccn4)cc3)c12 (stereo partly drawn) [Example 150, 2-({(3R)-3-[8-amino-1-(4-{[4-(trifluoromethyl)pyridin-2-yl]carbamoyl}phenyl)imidazo[1,5-a]pyrazin-3-yl]piperidin-1-yl}carbonyl) cyclopropane-carboxylic acid]
9.14 |  | 5.40 | CC(C)C1(C(=O)O)CCC(C)(c2nc(-c3ccc(C(=O)Nc4cc(C(F)(F)F)ccn4)cc3)c3c(N)nccn23)C1 (centres unmarked) [Example 143, 3-[8-amino-1-(4-{[4-(trifluoromethyl)pyridin-2-yl]carbamoyl}phenyl)imidazo[1,5-a]pyrazin-3-yl]-3-methyl-1-(1-methylethyl)cyclopentane-carboxylic acid]
7.48 | 5.21 |  | CC1(C(=O)O)CCC(c2nc(-c3ccc(C(=O)Nc4cc(C5CC5)ccn4)cc3F)c3c(N)ncc(Cl)n23)CC1 (centres unmarked) [Example 164, 4-(8-amino-5-chloro-1-{4-[(4-cyclopropylpyridin-2-yl)carbamoyl]-2-fluorophenyl}imidazo [1,5-a]pyrazin-3-yl)-1-methylcyclohexane-carboxylic acid]
8.62 | 5.00 |  | Nc1nccn2c(-c3ccc(C(=O)O)o3)nc(-c3ccc(C(=O)Nc4cc(C(F)(F)F)ccn4)cc3)c12 [Example 28, 5-[8-amino-1-(4-{[4-(trifluoromethyl)pyridin-2-yl]carbamoyl}phenyl)imidazo[1,5-a]pyrazin-3-yl]furan-2-carboxylic acid]
9.28 | 5.00 |  | Nc1nccn2c([C@@H]3CC[C@H]4[C@H](C(=O)O)[C@H]43)nc(-c3ccc(C(=O)Nc4cc(C(F)(F)F)ccn4)cc3)c12 [Example 56, (1R,2R,5R,6S)-2-[8-amino-1-(4-{[4-(trifluoromethyl)pyridin-2-yl]carbamoyl}phenyl)imidazo[1,5-a]pyrazin-3-yl]bicyclo[3.1.0]hexane-6-carboxylic acid]
9.27 | 5.33 |  | CCOc1cc(C(=O)Nc2cc(C(F)(F)F)ccn2)ccc1-c1nc(C23CCC(C(=O)O)(CC2)C2CC23)n2ccnc(N)c12 (centres unmarked) [Example 100, 5-[8-amino-1-(2-ethoxy-4-{[4-(trifluoromethyl)pyridin-2-yl]carbamoyl}phenyl)imidazo[1,5-a]pyrazin-3-yl]tricyclo[3.2.2.0~2,4~] nonane-1-carboxylic acid]
9.64 | 6.56 |  | Nc1nccn2c(C34CCCC(C(=O)O)(CC3)CC4)nc(-c3ccc(C(=O)Nc4cc(C(F)(F)F)ccn4)cc3)c12 [Example 68, 5-[8-amino-1-(4-{[4-(trifluoromethyl)pyridin-2-yl]carbamoyl}phenyl)imidazo[1,5-a]pyrazin-3-yl]bicyclo[3.2.2] nonane-1-carboxylic acid]

Source: US10087188B2, “Benzamide imidazopyrazine Btk inhibitors” (MERCK SHARP & DOHME CORP., priority 2014, dated 2018)
